{"source": "paper PMC8704606", "about": "“The Artemiside-Artemisox-Artemisone-M1 Tetrad: Efficacies against Blood Stage P. falciparum Parasites, DMPK Properties, and the Case for Artemiside” (Pharmaceutics, 2021)", "key": {"[1]": {"experiment": "Cytotoxicity (LDH assay) against HepG2 cells", "type": "cell-based", "details": "human, HepG2 cells (hepatocellular carcinoma)", "protocol": "Cytotoxicity against mammalian hepatocellular carcinoma cells (HepG2 cells) was determined using the lactate dehydrogenase assay (LDH, Biovision Inc., Milpitas, CA, USA). […] Compound working solutions were prepared from 10 mM stock solutions (100% DMSO) in complete DMEM to a final DMSO (Sigma-Aldrich) conc. of <0.1% (vol/vol). […] Data analysis was performed using GraphPad Prism (version 6) software."}, "[2]": {"experiment": "Pharmacokinetics and metabolism after iv and po administration", "type": "in vivo", "details": "for half-life: mean ± SD, read-out: t½ (converted); for MRT last: read-out: MRT0-last; for AUC(0-t): up to 7 h", "protocol": "The plasma concentration-time profiles of the parent compounds and metabolites after administration iv and po to male C57/BL6 mice are presented in Figure 2, Figure 3 and Figure 4. Artemiside was quantifiable up to 24 h in all mice dosed iv and up to 7 h po (lower limit of quantitation LLOQ = 1.6 ng/mL or 0.004 μM) (Figure 2). […] For both artemiside and artemisox, the metabolite artemisone was quantifiable up to 3 h in both the po and iv groups (Figure 2 and Figure 3). Thereby it is confirmed that artemiside is rapidly converted via artemisox into artemisone. Artemisone itself was quantifiable up to three hours post dose (Figure 4). The mean circulating concentrations for the compounds and their metabolites are presented in Table S3a–f in the Supplementary Material 1. The metabolite M1 was also detected upon administration of artemiside, artemisox, and artemisone, but it was not quantified here; chromatograms indicating the presence of M1 are illustrated in Figure S3a–c in the Supplementary Material 1. In addition, the plasma concentration-time curves for artemiside and its metabolites artemisone and M1 following iv and po dosing in the same murine model are presented and discussed in detail elsewhere (cf. Figure 4 in reference).\nAll work was conducted with prior approval of the animal ethics committee of the University of Cape Town in accordance with the South African National Standards for the Care and Use of Animals for Scientific Purposes and guidelines from the South African Department of Health. The requirements and methods for the pharmacokinetics in vivo involving po and iv drug administration, sample extraction, analyses of samples by LC-MS/MS, and data analyses are described elsewhere. For the animal experiments and formulations, the compounds were dissolved in a 10:60:30 mixture of N,N-dimethylacetamide-polypropylene glycol-polyethylene glycol for intravenous dosing (iv) at 5 mg/kg. For the oral dose (po), compounds were individually dosed as a suspension in 0.5% (w/v) hydroxypropylmethylcellulose in water with 0.2% Tween80 at 50 mg/kg to male C57/BL6 mice (n = 3 for each group). For PK sampling, blood samples were collected at predetermined times (0.08, 0.25, 0.5, 1, 3, 5, 7, and 24 h) for both po and iv dosing via tail bleeding into heparinized tubes, centrifuged, and the plasma samples were stored at −80 °C until extraction. For preparation of samples, the frozen plasma samples were thawed and 15 μL was extracted by liquid–liquid extraction using a universal buffer (pH8) containing 10 ng/mL of the internal standard and ethyl acetate, and the extract was vortexed and centrifuged. Calibration standards and quality controls were extracted following the same procedure. Supernatants were dried down, reconstituted, and injected onto the column for LC-MS/MS analysis using an AB SCIEX 5500 QTRAP instrument coupled to an Agilent 1260 HPLC detection system as previously described."}, "[3]": {"details": "male, C57/BL6, mouse, plasma, iv 5 mg/kg, parent drug"}, "[4]": {"details": "male, C57/BL6, mouse, plasma, po 50 mg/kg, parent drug"}}, "note": "Like-named read-outs stand apart in the source and are kept apart here.", "data": [{"smiles": "C[C@H]1[C@H](N2CC[S+]([O-])CC2)O[C@@H]2O[C@@]3(C)CC[C@H]4[C@H](C)CC[C@@H]1[C@@]24OO3", "note": "[Artemisox 6, Artemisox]", "values": [{"measurement": "IC50 at 24 h", "setting": "[1]", "result": "> 50", "unit": "µM"}, {"measurement": "Mean iv circulating concentration", "setting": "[2]; 7 h after iv 5 mg/kg artemisox 6", "result": "blq"}, {"measurement": "Mean iv circulating concentration", "setting": "[2]; 24 h after iv 5 mg/kg artemisox 6", "result": "blq"}, {"measurement": "Mean po circulating concentration", "setting": "[2]; 24 h after po 50 mg/kg artemiside 5", "result": "blq"}, {"measurement": "Mean po circulating concentration", "setting": "[2]; 24 h after po 50 mg/kg artemisox 6", "result": "blq"}, {"measurement": "quantifiable/detectable in plasma up to", "setting": "[2]; iv group, parent drug, LLOQ 1.6 ng/mL or 0.004 μM for artemiside", "result": "up to 5 h"}, {"measurement": "concentration at 0.08 h", "setting": "[2]; male, C57/BL6, mouse, plasma, iv, 5 mg/kg, 0.08 h after iv 5 mg/kg artemiside 5, read-out: Mean iv circulating concentration", "result": 1930, "unit": "nM"}, {"measurement": "concentration at 0.08 h", "setting": "[2]; male, C57/BL6, mouse, plasma, iv, 5 mg/kg, 0.08 h after iv 5 mg/kg artemisox 6, read-out: Mean iv circulating concentration", "result": 1900, "unit": "nM"}, {"measurement": "concentration at 0.25 h", "setting": "[2]; male, C57/BL6, mouse, plasma, iv, 5 mg/kg, 0.25 h after iv 5 mg/kg artemiside 5, read-out: Mean iv circulating concentration", "result": 1820, "unit": "nM"}, {"measurement": "concentration at 0.25 h", "setting": "[2]; male, C57/BL6, mouse, plasma, iv, 5 mg/kg, 0.25 h after iv 5 mg/kg artemisox 6, read-out: Mean iv circulating concentration", "result": 2420, "unit": "nM"}, {"measurement": "concentration at 0.5 h", "setting": "[2]; male, C57/BL6, mouse, plasma, iv, 5 mg/kg, 0.5 h after iv 5 mg/kg artemiside 5, read-out: Mean iv circulating concentration", "result": 1380, "unit": "nM"}, {"measurement": "concentration at 0.5 h", "setting": "[2]; male, C57/BL6, mouse, plasma, iv, 5 mg/kg, 0.5 h after iv 5 mg/kg artemisox 6, read-out: Mean iv circulating concentration", "result": 1920, "unit": "nM"}, {"measurement": "concentration at 1 h", "setting": "[2]; male, C57/BL6, mouse, plasma, iv, 5 mg/kg, 1 h after iv 5 mg/kg artemiside 5, read-out: Mean iv circulating concentration", "result": 674, "unit": "nM"}, {"measurement": "concentration at 1 h", "setting": "[2]; male, C57/BL6, mouse, plasma, iv, 5 mg/kg, 1 h after iv 5 mg/kg artemisox 6, read-out: Mean iv circulating concentration", "result": 663, "unit": "nM"}, {"measurement": "concentration at 3 h", "setting": "[2]; male, C57/BL6, mouse, plasma, iv, 5 mg/kg, 3 h after iv 5 mg/kg artemiside 5, read-out: Mean iv circulating concentration", "result": 66, "unit": "nM"}, {"measurement": "concentration at 3 h", "setting": "[2]; male, C57/BL6, mouse, plasma, iv, 5 mg/kg, 3 h after iv 5 mg/kg artemisox 6, read-out: Mean iv circulating concentration", "result": 7, "unit": "nM"}, {"measurement": "concentration at 5 h", "setting": "[2]; male, C57/BL6, mouse, plasma, iv, 5 mg/kg, 5 h after iv 5 mg/kg artemiside 5, read-out: Mean iv circulating concentration", "result": 20, "unit": "nM"}, {"measurement": "concentration at 5 h", "setting": "[2]; male, C57/BL6, mouse, plasma, iv, 5 mg/kg, 5 h after iv 5 mg/kg artemisox 6, read-out: Mean iv circulating concentration", "result": 7, "unit": "nM"}, {"measurement": "concentration at 7 h", "setting": "[2]; male, C57/BL6, mouse, plasma, iv, 5 mg/kg, 7 h after iv 5 mg/kg artemiside 5, read-out: Mean iv circulating concentration", "result": 11, "unit": "nM"}, {"measurement": "concentration at 24 h", "setting": "[2]; male, C57/BL6, mouse, plasma, iv, 5 mg/kg, 24 h after iv 5 mg/kg artemiside 5, read-out: Mean iv circulating concentration", "result": 5, "unit": "nM"}, {"measurement": "half-life", "setting": "[2]; male, C57/BL6, mouse, plasma, iv, 5 mg/kg, iv 5 mg/kg, parent drug", "result": "25.8 ± 7.2", "unit": "min"}, {"measurement": "concentration at 0.08 h", "setting": "[2]; male, C57/BL6, mouse, plasma, po, 50 mg/kg, 0.08 h after po 50 mg/kg artemiside 5, read-out: Mean po circulating concentration", "result": 1860, "unit": "nM"}, {"measurement": "concentration at 0.08 h", "setting": "[2]; male, C57/BL6, mouse, plasma, po, 50 mg/kg, 0.08 h after po 50 mg/kg artemisox 6, read-out: Mean po circulating concentration", "result": 3040, "unit": "nM"}, {"measurement": "concentration at 0.25 h", "setting": "[2]; male, C57/BL6, mouse, plasma, po, 50 mg/kg, 0.25 h after po 50 mg/kg artemiside 5, read-out: Mean po circulating concentration", "result": 2150, "unit": "nM"}, {"measurement": "concentration at 0.25 h", "setting": "[2]; male, C57/BL6, mouse, plasma, po, 50 mg/kg, 0.25 h after po 50 mg/kg artemisox 6, read-out: Mean po circulating concentration", "result": 4210, "unit": "nM"}, {"measurement": "concentration at 0.5 h", "setting": "[2]; male, C57/BL6, mouse, plasma, po, 50 mg/kg, 0.5 h after po 50 mg/kg artemiside 5, read-out: Mean po circulating concentration", "result": 2510, "unit": "nM"}, {"measurement": "concentration at 0.5 h", "setting": "[2]; male, C57/BL6, mouse, plasma, po, 50 mg/kg, 0.5 h after po 50 mg/kg artemisox 6, read-out: Mean po circulating concentration", "result": 2150, "unit": "nM"}, {"measurement": "concentration at 1 h", "setting": "[2]; male, C57/BL6, mouse, plasma, po, 50 mg/kg, 1 h after po 50 mg/kg artemiside 5, read-out: Mean po circulating concentration", "result": 2030, "unit": "nM"}, {"measurement": "concentration at 1 h", "setting": "[2]; male, C57/BL6, mouse, plasma, po, 50 mg/kg, 1 h after po 50 mg/kg artemisox 6, read-out: Mean po circulating concentration", "result": 2010, "unit": "nM"}, {"measurement": "concentration at 3 h", "setting": "[2]; male, C57/BL6, mouse, plasma, po, 50 mg/kg, 3 h after po 50 mg/kg artemiside 5, read-out: Mean po circulating concentration", "result": 286, "unit": "nM"}, {"measurement": "concentration at 3 h", "setting": "[2]; male, C57/BL6, mouse, plasma, po, 50 mg/kg, 3 h after po 50 mg/kg artemisox 6, read-out: Mean po circulating concentration", "result": 13, "unit": "nM"}, {"measurement": "concentration at 5 h", "setting": "[2]; male, C57/BL6, mouse, plasma, po, 50 mg/kg, 5 h after po 50 mg/kg artemiside 5, read-out: Mean po circulating concentration", "result": 7, "unit": "nM"}, {"measurement": "concentration at 5 h", "setting": "[2]; male, C57/BL6, mouse, plasma, po, 50 mg/kg, 5 h after po 50 mg/kg artemisox 6, read-out: Mean po circulating concentration", "result": 5, "unit": "nM"}, {"measurement": "concentration at 7 h", "setting": "[2]; male, C57/BL6, mouse, plasma, po, 50 mg/kg, 7 h after po 50 mg/kg artemiside 5, read-out: Mean po circulating concentration", "result": 5, "unit": "nM"}, {"measurement": "concentration at 7 h", "setting": "[2]; male, C57/BL6, mouse, plasma, po, 50 mg/kg, 7 h after po 50 mg/kg artemisox 6, read-out: Mean po circulating concentration", "result": 4, "unit": "nM"}, {"measurement": "half-life", "setting": "[2]; male, C57/BL6, mouse, plasma, po, 50 mg/kg, po 50 mg/kg, parent drug", "result": "32.4 ± 6", "unit": "min"}, {"measurement": "clearance", "setting": "[2]; male, C57/BL6, mouse, plasma, iv 5 mg/kg", "result": 115, "unit": "mL/min/kg"}, {"measurement": "AUC(0-inf)", "setting": "[2]; [3]", "result": "2 ± 0.7", "unit": "µM·h"}, {"measurement": "MRT last", "setting": "[2]; male, C57/BL6, mouse, plasma, iv 5 mg/kg, parent drug, 0-last up to 7 h", "result": "34.2 ± 2.4", "unit": "min"}, {"measurement": "AUC(0-t)", "setting": "[2]; [3]", "result": "2 ± 0.7", "unit": "µM·h"}, {"measurement": "Vd", "setting": "[2]; male, C57/BL6, mouse, plasma, iv 5 mg/kg, read-out: Vss", "result": "4 ± 1.2", "unit": "L/kg"}, {"measurement": "bioavailability", "setting": "[2]; male, C57/BL6, mouse, plasma, po 50 mg/kg vs iv 5 mg/kg, read-out: F (bioavailability)", "result": "16 ± 2", "unit": "%"}, {"measurement": "Cmax", "setting": "[2]; [4]", "result": "4500 ± 2300", "unit": "nM"}, {"measurement": "MRT last", "setting": "[2]; [4]", "result": "41.4 ± 5.4", "unit": "min"}, {"measurement": "AUC(0-t)", "setting": "[2]; [4]", "result": "3.3 ± 1.4", "unit": "µM·h"}, {"measurement": "MAT (mean absorption time = MRTpo–MRTiv)", "setting": "[2]; po 50 mg/kg", "result": "7.8 ± 4.2", "unit": "min"}, {"measurement": "quantifiable/detectable in plasma up to", "setting": "[2]; po group, parent drug", "result": "up to 7 h"}]}]}
